24 compounds from ChEMBL document CHEMBL6178020, “Harder than Metal: Challenging Antimicrobial Resistance with Metallo-β-lactamase Inhibitors” (J Med Chem, 2025) can be followed below.

Broadly, the Ki is a dissociation constant, usually derived from enzyme kinetics or from competition with a known ligand.

Experiment [1] has as its target T1, Metallo-beta-lactamase type 2 (Bacteria, UniProt C7C422). The experiment in a line: Inhibition of Metallo-beta-lactamase NDM-1 (unknown origin).
Experiment [2] concerns the target T1, Metallo-beta-lactamase type 2. The experiment in a line: Inhibition of N-terminal NDM-1 (unknown origin) extracted from Escherichia coli BL21.
The target is the same in experiment [3]. The experiment in a line: Binding affinity to N-terminal NDM-1 (unknown origin) extracted from Escherichia coli BL21 assessed as inhibition constant.
The subject of experiment [4] is Klebsiella pneumoniae. The experiment in a line: Antibacterial activity against Klebsiella pneumoniae expressing VIM-1 assessed as bacterial growth inhibition in presence of IPM. Type of experiment: functional.
Experiment [5] concerns Serratia marcescens. The experiment in a line: Antibacterial activity against Serratia marcescens expressing IMP-1 assessed as bacterial growth inhibition in presence of IPM. Type of experiment: functional.
For experiment [6], the target named is T1, Metallo-beta-lactamase type 2. The experiment in a line: Inhibition of NDM-1 (unknown origin).
The subject of experiment [7] is Escherichia coli. The experiment in a line: Antibacterial activity against Escherichia coli expressing NDM-1 assessed as bacterial growth inhibition in presence of IPM. The format is functional.
For experiment [8], the system named is Klebsiella pneumoniae. The experiment in a line: Antibacterial activity against carbapenem-resistant Klebsiella pneumoniae B68-1 infected in mouse assessed as fold reduction in bacterial load at 10 mg/kg, sc measured for 24 hrs in presence of Meropenem. The format is functional.
Experiment [9] deals with Escherichia coli. The experiment in a line: Antibacterial activity against carbapenem-resistant Escherichia coli IHMA 997800 infected in mouse assessed as fold reduction in bacterial load at 10 mg/kg, sc measured for 24 hrs in presence of Meropenem. Type of experiment: functional.
Experiment [10] relates to Escherichia coli. The experiment in a line: Antibacterial activity against carbapenem-resistant Escherichia coli IR57 infected in mouse assessed as fold reduction in bacterial load at 10 mg/kg, sc measured for 24 hrs in presence of Meropenem. The format is functional.
Experiment [11] concerns Escherichia coli. The experiment in a line: Antibacterial activity against carbapenem-resistant Escherichia coli […] infected in mouse assessed as fold reduction in bacterial load at 10 mg/kg, sc measured for 24 hrs in presence of Meropenem. Type of experiment: functional.
In experiment [12] the test system is Klebsiella pneumoniae. The experiment in a line: Antibacterial activity against Klebsiella pneumoniae expressing VIM-1 assessed as bacterial growth inhibition. Type of experiment: functional.
For experiment [13], the system named is Escherichia coli. The experiment in a line: Antibacterial activity against Escherichia coli expressing NDM-1 assessed as bacterial growth inhibition. The format is functional.
For experiment [14], the system named is Serratia marcescens. The experiment in a line: Antibacterial activity against Serratia marcescens expressing IMP-1 assessed as bacterial growth inhibition. The format is functional.

T1 sequence (C7C422 whole entry): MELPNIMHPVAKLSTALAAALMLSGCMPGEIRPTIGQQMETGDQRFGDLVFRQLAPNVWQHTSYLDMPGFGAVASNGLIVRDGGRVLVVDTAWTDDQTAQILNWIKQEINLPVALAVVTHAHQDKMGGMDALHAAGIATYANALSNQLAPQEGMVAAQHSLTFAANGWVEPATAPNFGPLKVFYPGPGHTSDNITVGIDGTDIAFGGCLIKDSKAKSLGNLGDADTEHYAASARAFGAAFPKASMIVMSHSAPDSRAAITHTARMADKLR

Take `O=C(O)CN1CCN(CC(=O)O)CCN(CC(=O)O)CC1`: in experiment [1], the IC50 worked out at 0.28 µM.
With `Nc1cccc(-c2cc(C(=O)O)nc(C(=O)O)c2)c1`, the IC50 in experiment [2] (read-out: IC50) turned out to be 0.08 µM.
The compound `N[C@H](CN[C@H](CN[C@@H](CC(=O)O)C(=O)O)C(=O)O)C(=O)O` displayed an IC50 in [1] of 4 µM.
On to `O=C(O)c1ncsc1NS(=O)(=O)c1cccnc1`, for which the Ki in [3] stood at 0.8 µM.
Take `C[C@H](CS)C(=O)N1CCc2ccccc2[C@@H]1C(=O)O`: the IC50 in experiment [1] amounted to 4.6 µM.
The same measure, in the same setting: the figure for `C[C@H](CS)C(=O)N1CCC(C(N)=O)CC1` is 11.1 µM; for `C[C@H](CS)C(=O)N1CCC[C@H](C(=O)O)C1` it is 28.4 µM; for `C[C@H](CS)C(=O)N1CCCCC[C@@H]1C(=O)O` it is 20.4 µM.
Same read-out and setting: the figure for `C[C@H](CS)C(=O)N1CCC(CC(N)=O)CC1` is 27.9 µM.
Consider `C[C@H](CS)C(=O)N1CCCC[C@@H]1C(=O)O`, for which the IC50 in experiment [1] worked out at 6.9 µM.
Compound `C[C@H](CS)C(=O)N1Cc2ccccc2C[C@@H]1C(=O)O` returned an IC50 in experiment [1] greater than 300 µM.
Still for that read-out and setting: then `O=C(O)[C@H]1CCCN1C(=O)C(CS)CS`, with 75 µM; and `C[C@H](CS)C(=O)N1CCC(C(=O)O)CC1`, with 4.9 µM; and `C[C@H](CS)C(=O)N1CCC(CC(=O)O)CC1`, with 19.8 µM.
Consider `NS(=O)(=O)c1nccc(-c2ccc(CO)cc2)c1-c1nn[nH]n1`, for which the MITC95 in the experiment with Klebsiella pneumoniae [4] is 11.76 µM; with Serratia marcescens [5], 5.19 µM; in the experiment on Escherichia coli [7], 0.558 µM. The IC50 in experiment [6] worked out at 0.035 µM.
As for `Nc1cc(-c2nnn[nH]2)c(S(N)(=O)=O)cc1S(N)(=O)=O`, the IC50 in experiment [6] turned out to be 0.033 µM.
For `Cc1ccc(-c2cccc(S(N)(=O)=O)c2-c2nnn[nH]2)cc1`, the MITC95 with Klebsiella pneumoniae [4] came out at 127 µM; in the experiment on Serratia marcescens [5], 13.8 µM; in the experiment with Escherichia coli [7] it was 1.48 µM.
In the case of `N=C(N)NNC(=O)Nc1c(F)cc(S(=O)(=O)Nc2scnc2C(=O)O)cc1F`, in [3], the Ki amounted to 0.04 µM.
For the compound `COc1ccc(Cl)cc1-c1c(C(=O)O)[nH]c2c1CCc1ccccc1-2`, the IC50 in experiment [2] (read-out: IC50) amounted to 0.05 µM.
`C[C@@H](c1cccc2c(-c3ccc(CS(C)(=O)=O)c(F)c3)c(C(=O)O)[nH]c12)N1CC2(CC(CN)C2)OC1=O` (stereo not given in full): the “fold change (FC)” value with Klebsiella pneumoniae [8], in the experiment with Escherichia coli [9], in the experiment with Escherichia coli [10] and in the experiment with Escherichia coli [11] was 7 each time. Also, the IC50 in experiment [2] (read-out: pIC50 (converted)) was less than 0.001 µM.
As for `OCC(S)CS` (stereo not given) [DIMERCAPROL], in experiment [1], the IC50 was 1.3 µM.
Take `C[C@@H](O)[C@H]1C(=O)N2C(C(=O)O)=C(SCCNC=N)C[C@H]12` [IMIPENEM ANHYDROUS]: the MITC95 in the experiment with Klebsiella pneumoniae [12] was 64 µg/mL; with Escherichia coli [13], 32 µg/mL; in the experiment with Serratia marcescens [14], 16 µg/mL.
With `O=C(O)CN1CCN(CC(=O)O)CCN(CC(=O)O)CCN(CC(=O)O)CC1` [TETRAXETAN], the IC50 in experiment [1] worked out at 1.34 µM.
`O=C(O)CNC(=O)C(CS)Cc1ccccc1` (stereo not given) [THIORPHAN]: the IC50 in experiment [1] turned out to be 1.8 µM.
